Legend:
CT-DNA = test: EB-DNA competitive binding (fluorescence quenching); set-up: species or system calf; conditions: compounds 10–100 μM; for quenching of the emission band of DNA-bound EB: % of the initial fluorescence intensity; for Quenching constant KSV: Stern–Volmer, DNA-EB 10 μM
Procedure: The competitive binding experiments were carried out on the EB–CT-DNA system by varying the concentrations of the ligands and complexes to get further information about the binding mode of compounds with DNA. In our studies, it was noted that upon concomitant addition of the compounds to the EB-DNA system, emission intensity decreased progressively, indicative of competition between EB and compounds towards CT-DNA in binding/chelation (Fig. S26 ^†). The reduction of the fluorescence emission intensity gives criteria to investigate the DNA binding propensity of the compounds and stacking interaction (intercalation) between the adjacent DNA base pairs.[45] […] This provides a direct evidence for the intercalative binding mode of the compounds with DNA.
Further quantitative measurement of the magnitude of interaction was ascertained by the classical Stern–Volmer equation. Quenching constant KSV is used to evaluate the quenching efficiency and is obtained from the slope of Io/I versus [Q] […] Further, the calculated KSV values of the compounds are significant when compared to the reported values.[30,31]
Supplementary Information
All the experiments involving CT-DNA binding were carried out in deionised water with tris(hydroxymethyl)-aminomethane (Tris, 5 mM) and sodium chloride (50 mM) and adjusted to pH 7.2 with hydrochloric acid at room temperature. The concentration of CT-DNA was determined by UV absorbance at 260 nm. Solutions of CT-DNA in Tris-HCl buffer gave a ratio of UV absorbance at 260 and 280 nm, A260/A280, of approximately 1.9, […]
The molar absorption coefficient, […]
[DNA]/[εa-εf]) = [DNA]/[ε b-εf]+1/Kb[εb-εf] (S1) […]
EB-DNA. The change in the fluorescence intensity was recorded. Before measurements, the system was shaken well and incubated at room temperature for 5 min. […]

BSA = molecular target: T1, BSA (Bos taurus, UniProt P02769); test: BSA tryptophan fluorescence quenching; assay type: binding, bovine; conditions: for Quenching constant kq / Stern–Volmer KSV / number of binding sites n / Binding constant Kbin: BSA; for Binding constant Kbin: Scatchard equation; for quenching of BSA fluorescence intensity at 346 nm: compounds 10–100 μM, BSA 10 μM
T1 construct: purchased HiMedia (Mumbai, India)
Source text: (§1) The obtained results confirmed the interaction of the ligands and complexes with serum albumins. The absorption spectra of the serum albumins in the absence and presence of ligands H2L^1–4 and the complexes 1–4 are given in Fig. S29 in the ESI. ^† On adding ligands and complexes 1–4 to albumins, the absorbance intensity of serum albumins was decreased with a red shift of 2 nm. The observed changes indicated a static quenching mechanism of serum albumins by the ligands and complexes (1–4). To obtain a quantitative insight into the quenching progression, the Stern–Volmer quenching constant (KSV) and the quenching constant (Kq) were calculated from the Stern–Volmer equation using the Io/ICorrversus [Q] plot (Table 4).[53] The observed linearity in the plots (Fig. 13) indicated the ability of the compounds to quench the emission intensity of serum albumins and the order of quenching constant of the compounds is complex 3 > complex 2 > complex 1 > complex 4 > H2L^3 > H2L^2 > H2L^1 > H2L^4.
(§2) Furthermore, the equilibrium binding constant and number of binding sites were evaluated by using the Scatchard equation. The Kbin values were derived from the graph between log[(Fo − F)/F] and log[Q] From the results, we confirmed that the Ru(II) complexes having a large hydrophobic area can interact more efficiently than the ligands with serum albumins via a static pathway. The higher binding affinity of the complexes over the ligands may be due to the efficient binding of protein moiety with the complexed metal ions. Here, the binding affinities of the complexes with serum albumins followed the same order as those with DNA binding studies, complex 3 > complex 2 > complex 1 > complex 4 > H2L^3 > H2L^2 > H2L^1 > H2L^4. Variation in the binding affinity of the compounds with serum albumins depends on the electron-donating ability of the ligand, i.e. the substitution on the N-terminal nitrogen atom. The binding capability of the compounds to serum albumins increased with the increase in electron-donating ability of the substituent on the terminal nitrogen of the coordinated thiosemicarbazone ligand. The obtained quenching constant and binding constant values of these new cyclometallated ruthenium(II) complexes agree well with those reported for other ruthenium(II) complexes.[31,44,54–56] […]
(§3) Serum albumin binding study
(§4) Bovine Serum Albumin (BSA) and human serum albumin were purchased from Hi Media, The protein binding study was performed by tryptophan fluorescence quenching experiments using bovine serum albumin (BSA, 10 µM) or human serum albumin (HSA, 10 µM) as the substrate in phosphate buffer (pH= 7.2). Quenching of the emission intensity of tryptophan residues of BSA at 346 nm (excitation wavelength at 280 nm)/ HSA at 345 nm (excitation wavelength at 290 nm) was monitored using ligands and complexes as quenchers with increasing concentration (10-100µM). Synchronous fluorescence spectra of BSA or HSA with various concentrations of the complexes were obtained from 300 to 400 nm when ∆λ = 60 nm and from 290 to 500 nm when ∆λ = 15 nm. For synchronous fluorescence spectra, the same concentrations of serum albumins and the compounds were also used and the spectra were measured at two different Δλ values (difference between the excitation and emission wavelengths of BSA), such as 15 and 60 nm. Fluorescence and synchronous measurements were performed using a 1 cm quartz cell on a JASCO FP 6600 spectrofluorimeter.
(§5) The quenching data can be analyzed according to the Stern-Volmer equation, […]
(§6) Io/Icorr =K SV[Q]+1 Eq (S2) where Iₒ is the emission intensity in the absence of compound, Icorr is the corrected emission intensity in the presence of compound, KSV is the quenching constant and [Q] is the concentration of the compound.
(§7) In order to correct the inner filter effect, the following equation used Icorr = Iobs*10 (Aexc+Aem)/2 where Icorr is the corrected fluorescence value, Iobs the measured fluorescence value, Aexc is […]

HSA = molecular target: T2, HSA (Homo sapiens, UniProt P02768); test: HSA tryptophan fluorescence quenching; assay type: binding; conditions: for Quenching constant kq / Stern–Volmer KSV / number of binding sites n / Binding constant Kbin / Kd: HSA; for Binding constant Kbin / Kd: Scatchard equation; for decrease of HSA fluorescence intensity: compounds 10–100 μM, HSA 10 μM; for Kd: read-out: Binding constant Kbin (converted)
T2 construct: purchased HiMedia (Mumbai, India)
Source text: as §1, §2, §3, §4, §5, §6, §7

T1 sequence (P02769 25-607): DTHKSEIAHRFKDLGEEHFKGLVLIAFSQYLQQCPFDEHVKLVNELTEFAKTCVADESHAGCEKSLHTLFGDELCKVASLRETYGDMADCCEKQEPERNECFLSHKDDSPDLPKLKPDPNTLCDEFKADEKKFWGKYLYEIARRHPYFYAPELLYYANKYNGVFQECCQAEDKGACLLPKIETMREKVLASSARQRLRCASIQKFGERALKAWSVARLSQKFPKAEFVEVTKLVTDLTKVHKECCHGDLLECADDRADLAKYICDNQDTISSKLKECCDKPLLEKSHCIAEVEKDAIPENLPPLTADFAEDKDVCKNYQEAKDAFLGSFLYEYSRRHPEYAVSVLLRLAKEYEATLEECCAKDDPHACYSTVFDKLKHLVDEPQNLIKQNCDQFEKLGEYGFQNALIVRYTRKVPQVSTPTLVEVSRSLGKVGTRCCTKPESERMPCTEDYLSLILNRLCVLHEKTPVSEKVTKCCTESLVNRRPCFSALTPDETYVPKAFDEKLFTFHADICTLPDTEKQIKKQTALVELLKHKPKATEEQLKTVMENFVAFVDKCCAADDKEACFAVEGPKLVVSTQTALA
T2 sequence (P02768 25-609): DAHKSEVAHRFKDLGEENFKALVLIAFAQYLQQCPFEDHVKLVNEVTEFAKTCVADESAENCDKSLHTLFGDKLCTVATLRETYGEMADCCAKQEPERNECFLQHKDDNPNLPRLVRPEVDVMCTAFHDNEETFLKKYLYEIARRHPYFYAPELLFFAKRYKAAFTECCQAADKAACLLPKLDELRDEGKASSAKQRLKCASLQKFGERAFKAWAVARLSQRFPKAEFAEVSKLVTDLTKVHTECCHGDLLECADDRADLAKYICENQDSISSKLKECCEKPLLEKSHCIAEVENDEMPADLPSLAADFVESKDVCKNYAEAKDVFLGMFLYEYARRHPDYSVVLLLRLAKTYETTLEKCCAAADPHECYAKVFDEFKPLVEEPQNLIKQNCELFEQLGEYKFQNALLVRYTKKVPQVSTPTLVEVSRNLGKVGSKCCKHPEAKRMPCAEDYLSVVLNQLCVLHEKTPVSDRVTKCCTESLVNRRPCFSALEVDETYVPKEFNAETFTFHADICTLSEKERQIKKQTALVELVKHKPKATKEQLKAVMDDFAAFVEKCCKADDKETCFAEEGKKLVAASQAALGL

CCNC1=N[N+]2=C(C)c3[c](c4ccc(OC)cc4oc3=O)[Ru-4]2([C]#[O+])([P+](c2ccccc2)(c2ccccc2)c2ccccc2)([P+](c2ccccc2)(c2ccccc2)c2ccccc2)[S]1 [Complex 3, [Ru(7MAC-etsc)(CO)(PPh3)2]]
quenching of the emission band of DNA-bound EB (CT-DNA): 36.99% | Quenching constant KSV (CT-DNA): 5.62 ± 0.003 × 10^3 M^−1 | Quenching constant kq (BSA): 1.756 ± 0.080 × 10^12 M^−1 s^−1 | Stern–Volmer KSV (BSA): 1.756 ± 0.080 × 10^4 M^−1 | number of binding sites n (BSA): 1.266 ± 0.0290 | Binding constant Kbin (BSA): 17.49 ± 0.030 × 10^4 M^−1 | quenching of BSA fluorescence intensity at 346 nm (BSA): 63.19% | Quenching constant kq (HSA): 1.189 ± 0.030 × 10^12 M^−1 s^−1 | Stern–Volmer KSV (HSA): 1.189 ± 0.030 × 10^4 M^−1 | number of binding sites n (HSA): 1.2027 ± 0.030 | Binding constant Kbin (HSA): 7.194 ± 0.041 × 10^4 M^−1 | decrease of HSA fluorescence intensity (HSA): 53.45%

COc1ccc2cc(/C(C)=N\NC(=S)Nc3ccccc3)c(=O)oc2c1 [H2L^4, ((1E)-1-(1-(7-methoxy-2-oxo-2H-chromen-3-yl)ethylidene) 4(N)-phenylthiosemicarbazone)]
Kd (BSA): 900 µM | Kd (HSA): 858 µM | melting point: 186 °C

CNC1=N[N+]2=C(C)c3[c](c4ccc(OC)cc4oc3=O)[Ru-4]2([C]#[O+])([P+](c2ccccc2)(c2ccccc2)c2ccccc2)([P+](c2ccccc2)(c2ccccc2)c2ccccc2)[S]1 [Complex 2, [Ru(7MAC-mtsc)(CO)(PPh3)2]]
quenching of the emission band of DNA-bound EB (CT-DNA): 36.67% | Quenching constant KSV (CT-DNA): 5.52 ± 0.009 × 10^3 M^−1 | Quenching constant kq (BSA): 2.382 ± 0.011 × 10^12 M^−1 s^−1 | Stern–Volmer KSV (BSA): 2.382 ± 0.011 × 10^4 M^−1 | number of binding sites n (BSA): 1.0478 ± 0.031 | Binding constant Kbin (BSA): 3.323 ± 0.027 × 10^4 M^−1 | quenching of BSA fluorescence intensity at 346 nm (BSA): 71.15% | Quenching constant kq (HSA): 1.088 ± 0.030 × 10^12 M^−1 s^−1 | Stern–Volmer KSV (HSA): 1.088 ± 0.030 × 10^4 M^−1 | number of binding sites n (HSA): 1.1859 ± 0.004 | Binding constant Kbin (HSA): 6.341 ± 0.039 × 10^4 M^−1 | decrease of HSA fluorescence intensity (HSA): 50.56%

COc1ccc2[c]3c(c(=O)oc2c1)C(C)=[N+]1N=C(N)[S][Ru-4]31([C]#[O+])([P+](c1ccccc1)(c1ccccc1)c1ccccc1)[P+](c1ccccc1)(c1ccccc1)c1ccccc1 [Complex 1, [Ru(7MAC-tsc)(CO)(PPh3)2]]
quenching of the emission band of DNA-bound EB (CT-DNA): 27.83% | Quenching constant KSV (CT-DNA): 4.16 ± 0.002 × 10^3 M^−1 | Quenching constant kq (BSA): 1.674 ± 0.040 × 10^12 M^−1 s^−1 | Stern–Volmer KSV (BSA): 1.674 ± 0.040 × 10^4 M^−1 | number of binding sites n (BSA): 1.0408 ± 0.030 | Binding constant Kbin (BSA): 2.251 ± 0.029 × 10^4 M^−1 | quenching of BSA fluorescence intensity at 346 nm (BSA): 62.61% | Quenching constant kq (HSA): 0.741 ± 0.010 × 10^12 M^−1 s^−1 | Stern–Volmer KSV (HSA): 0.741 ± 0.010 × 10^4 M^−1 | number of binding sites n (HSA): 1.1329 ± 0.018 | Binding constant Kbin (HSA): 2.273 ± 0.017 × 10^4 M^−1 | decrease of HSA fluorescence intensity (HSA): 41.01%

CNC(=S)NN=C(C)c1cc2ccc(OC)cc2oc1=O [H2L^2, ((1E)-1-(1-(7-methoxy-2-oxo-2H-chromen-3-yl)ethylidene) 4(N)-methylthiosemicarbazone)]
Kd (BSA): 333 µM | Kd (HSA): 392 µM | melting point: 117 °C

CCNC(=S)NN=C(C)c1cc2ccc(OC)cc2oc1=O [H2L^3, ((1E)-1-(1-(7-methoxy-2-oxo-2H-chromen-3-yl)ethylidene) 4(N)-ethylthiosemicarbazone)]
Kd (BSA): 70.9 µM | Kd (HSA): 382 µM | melting point: 174 °C

COc1ccc2[c]3c(c(=O)oc2c1)C(C)=[N+]1N=C(Nc2ccccc2)[S][Ru-4]31([C]#[O+])([P+](c1ccccc1)(c1ccccc1)c1ccccc1)[P+](c1ccccc1)(c1ccccc1)c1ccccc1 [Complex 4, [Ru(7MAC-ptsc)(CO)(PPh3)2]]
quenching of the emission band of DNA-bound EB (CT-DNA): 28.92% | Quenching constant KSV (CT-DNA): 4.00 ± 0.002 × 10^3 M^−1 | Quenching constant kq (BSA): 1.454 ± 0.030 × 10^12 M^−1 s^−1 | Stern–Volmer KSV (BSA): 1.454 ± 0.030 × 10^4 M^−1 | number of binding sites n (BSA): 1.0486 ± 0.019 | Binding constant Kbin (BSA): 2.178 ± 0.019 × 10^4 M^−1 | quenching of BSA fluorescence intensity at 346 nm (BSA): 58.68% | Quenching constant kq (HSA): 0.675 ± 0.008 × 10^12 M^−1 s^−1 | Stern–Volmer KSV (HSA): 0.675 ± 0.008 × 10^4 M^−1 | number of binding sites n (HSA): 0.9118 ± 0.025 | Binding constant Kbin (HSA): 0.297 ± 0.024 × 10^4 M^−1 | decrease of HSA fluorescence intensity (HSA): 39.80%

COc1ccc2cc(C(C)=NNC(N)=S)c(=O)oc2c1 [H2L^1, ((1E)-1-(1-(7-methoxy-2-oxo-2H-chromen-3-yl)ethylidene)thiosemicarbazone)]
Kd (BSA): 507 µM | Kd (HSA): 477 µM | melting point: 213 °C
